Results on two molecules are retold here after patent publication US8906909B2 (Curis, Inc., priority 2009, dated 2014).

One experiment deals with T1, PI3Kβ (p110β/p85α) (Homo sapiens, UniProt P42338).
T1 construct: N-terminal histidine-tagged recombinant full-length human p110β; His tag (N); made in house; host or cells: Baculovirus-infected Sf21 insect cells
In words: PI3Kβ TR-FRET (HTRF) assay. It counts as biochemical. As to conditions: 10 μM ATP.

Another experiment has as its target T2, PI3Kγ (p120γ) (Homo sapiens, UniProt P48736).
T2 construct: His tag (N); made in house; host or cells: Baculovirus-infected Sf9 insect cells
In words: PI3Kγ TR-FRET (HTRF) assay. The class given is biochemical. The conditions noted are these: 10 μM ATP. The text has this: The proteins are purified by one-step affinity chromatography using glutathione-agarose.

Experiment [1] concerns Sk-Mel-28 cells. In words: Cell proliferation assay Method A (ATPlite), Sk-Mel-28. The class given is cell-based. As to conditions: Homo sapiens, 72 hours, read-out: antiproliferative activity IC50, Sk-Mel-28. The procedure, abridged:
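Cells seeded at 5,000–10,000 per well with graded compound concentrations and cultured 72 h in 0.5% fetal bovine serum. Growth inhibition read as cellular ATP content by firefly luciferase luminescence (ATPlite).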

In another experiment the test system is MDA-MB-453 cells. In words: Cell proliferation assay Method B, MDA-MB-453. The class given is cell-based. The conditions noted are these: Homo sapiens, Breast, 72 hours, read-out: antiproliferative activity IC50, MDA-MB-453. The procedure:
(§1) Cancer cell lines were plated at 5,000 to 10,000 per well in 96-well flat bottomed plates with various concentration of compounds. The cells were incubated with compounds for 72 hours in the presence of 0.5% of fetal bovine serum. Growth inhibition was accessed by adenosine triphosphate (ATP) content assay using Promega CellTiter-Glo kit. Promega CellTiter-Glo kit is an ATP monitoring system based on firefly luciferase. Briefly, 16 μl of mammalian cell lysis and substrate solution was added to 84 μl of culture medium per well to lyse the cells and stabilize the ATP. The mixture was shaken and incubated for 30 minutes and subsequently the luminescence was measured.

The next experiment relates to MDA-MB-468 cells. As to the kind of experiment: Cell proliferation assay Method B, MDA-MB-468. The class given is cell-based. As to conditions: Homo sapiens, Breast, Method B, 72 hours, read-out: antiproliferative activity IC50, MDA-MB-468. A digest of the protocol:
(§2)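 Seeding density 5,000–10,000 cells/well; compound incubation 72 h; 0.5% FBS; endpoint luminescence of cellular ATP after 30 min with lysis/substrate reagent.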

For experiment [2], the system named is Sk-Mel-28 cells. As to the kind of experiment: Cell proliferation assay Method B, Sk-Mel-28. It counts as cell-based. The conditions noted are these: Homo sapiens, SK-MEL-28; Melanoma; Method B; 72 hours; read-out: antiproliferative activity IC50, Sk-Mel-28. A digest of the protocol:
as §2

In a further experiment the test system is SUP-B15 cells. In words: Cell proliferation assay Method B, SUP-B15. As to conditions: Homo sapiens, ALL, 72 hours, read-out: antiproliferative activity IC50, SUP-B15. It counts as cell-based. On the procedure:
as §1

The test system of another experiment is Raji cells. As to the kind of experiment: Cell proliferation assay Method B, Raji. It counts as cell-based. As to conditions: Homo sapiens, NHL, 72 hours, read-out: antiproliferative activity IC50, Raji. On the procedure: as §1
Another experiment relates to RPMI-8226 cells. As to the kind of experiment: Cell proliferation assay Method B, RPMI-8226. The conditions noted are these: Homo sapiens, Multiple Myeloma, Method B, 72 hours, read-out: antiproliferative activity IC50, RPMI-8226. The class given is cell-based. A digest of the protocol:
as §2

The subject of the next experiment is HCT116 cells. In words: Cell proliferation assay Method B, HCT116. The class given is cell-based. As to conditions: Homo sapiens, HCT-116, Colon, 72 hours, read-out: antiproliferative activity IC50, HCT116. The procedure: as §1
For a further experiment, the system named is SW403 cells. In words: Cell proliferation assay Method B, SW403. It counts as cell-based. As to conditions: Homo sapiens, SW-403, Colon, 72 hours, read-out: antiproliferative activity IC50, SW403. On the procedure:
as §1

A further experiment has as its system SW620 cells. In words: Cell proliferation assay Method B, SW620. The class given is cell-based. The conditions noted are these: Homo sapiens, SW-620, Colon, 72 hours, read-out: antiproliferative activity IC50, SW620. The procedure:
as §1

The subject of the next experiment is SWI-116 cells. As to the kind of experiment: Cell proliferation assay Method B, SWI-116. The class given is cell-based. As to conditions: Colon, 72 hours, read-out: antiproliferative activity IC50, SWI-116. The procedure:
as §1

For another experiment, the system named is T-84 cells. In words: Cell proliferation assay Method B, T-84. The class given is cell-based. The conditions noted are these: Homo sapiens, T84, Colon, 72 hours, read-out: antiproliferative activity IC50, T-84. The procedure: as §1
In another experiment the test system is H358 cells. As to the kind of experiment: Cell proliferation assay Method B, H358. It counts as cell-based. The conditions noted are these: Homo sapiens, NCI-H358, NSCLC, 72 hours, read-out: antiproliferative activity IC50, H358. The procedure:
as §1

A further experiment has as its system H292 cells. As to the kind of experiment: Cell proliferation assay Method B, H292. The class given is cell-based. As to conditions: Homo sapiens, NCI-H292, NSCLC, 72 hours, read-out: antiproliferative activity IC50, H292. The procedure:
as §1

The test system of the next experiment is H2122 cells. In words: Cell proliferation assay Method B, H2122. The class given is cell-based. The conditions noted are these: Homo sapiens, NCI-H2122, NSCLC, 72 hours, read-out: antiproliferative activity IC50, H2122. On the procedure:
as §1

The next experiment deals with H460 cells. As to the kind of experiment: Cell proliferation assay Method B, H460. It counts as cell-based. The conditions noted are these: Homo sapiens, NCI-H460, NSCLC, 72 hours, read-out: antiproliferative activity IC50, H460. The procedure:
as §1

Another experiment deals with A549 cells. As to the kind of experiment: Cell proliferation assay Method B, A549. The class given is cell-based. As to conditions: Homo sapiens, NSCLC, 72 hours, read-out: antiproliferative activity IC50, A549. On the procedure: as §1
For the next experiment, the system named is Calu6 cells. In words: Cell proliferation assay Method B, Calu6. It counts as cell-based. As to conditions: Homo sapiens, Calu-6, NSCLC, 72 hours, read-out: antiproliferative activity IC50, Calu6. The procedure: as §1
Another experiment concerns MiaPaca1 cells. In words: Cell proliferation assay Method B, MiaPaca1. As to conditions: Pancreas, 72 hours, read-out: antiproliferative activity IC50, MiaPaca1. It counts as cell-based. On the procedure:
as §1

The next experiment has as its system CaPan2 cells. As to the kind of experiment: Cell proliferation assay Method B, CaPan2. The class given is cell-based. The conditions noted are these: Homo sapiens, Capan-2, Pancreas, 72 hours, read-out: antiproliferative activity IC50, CaPan2. The procedure: as §1
For another experiment, the system named is PANC-1 cells. As to the kind of experiment: Cell proliferation assay Method B, PANC-1. The class given is cell-based. As to conditions: Homo sapiens, Pancreas, 72 hours, read-out: antiproliferative activity IC50, PANC-1. The procedure: as §1
The test system of a further experiment is glioblastoma xenografts. As to conditions: oral dosage; Folkes et al. 2008; cited from earlier work.

T1 sequence (P42338 whole entry): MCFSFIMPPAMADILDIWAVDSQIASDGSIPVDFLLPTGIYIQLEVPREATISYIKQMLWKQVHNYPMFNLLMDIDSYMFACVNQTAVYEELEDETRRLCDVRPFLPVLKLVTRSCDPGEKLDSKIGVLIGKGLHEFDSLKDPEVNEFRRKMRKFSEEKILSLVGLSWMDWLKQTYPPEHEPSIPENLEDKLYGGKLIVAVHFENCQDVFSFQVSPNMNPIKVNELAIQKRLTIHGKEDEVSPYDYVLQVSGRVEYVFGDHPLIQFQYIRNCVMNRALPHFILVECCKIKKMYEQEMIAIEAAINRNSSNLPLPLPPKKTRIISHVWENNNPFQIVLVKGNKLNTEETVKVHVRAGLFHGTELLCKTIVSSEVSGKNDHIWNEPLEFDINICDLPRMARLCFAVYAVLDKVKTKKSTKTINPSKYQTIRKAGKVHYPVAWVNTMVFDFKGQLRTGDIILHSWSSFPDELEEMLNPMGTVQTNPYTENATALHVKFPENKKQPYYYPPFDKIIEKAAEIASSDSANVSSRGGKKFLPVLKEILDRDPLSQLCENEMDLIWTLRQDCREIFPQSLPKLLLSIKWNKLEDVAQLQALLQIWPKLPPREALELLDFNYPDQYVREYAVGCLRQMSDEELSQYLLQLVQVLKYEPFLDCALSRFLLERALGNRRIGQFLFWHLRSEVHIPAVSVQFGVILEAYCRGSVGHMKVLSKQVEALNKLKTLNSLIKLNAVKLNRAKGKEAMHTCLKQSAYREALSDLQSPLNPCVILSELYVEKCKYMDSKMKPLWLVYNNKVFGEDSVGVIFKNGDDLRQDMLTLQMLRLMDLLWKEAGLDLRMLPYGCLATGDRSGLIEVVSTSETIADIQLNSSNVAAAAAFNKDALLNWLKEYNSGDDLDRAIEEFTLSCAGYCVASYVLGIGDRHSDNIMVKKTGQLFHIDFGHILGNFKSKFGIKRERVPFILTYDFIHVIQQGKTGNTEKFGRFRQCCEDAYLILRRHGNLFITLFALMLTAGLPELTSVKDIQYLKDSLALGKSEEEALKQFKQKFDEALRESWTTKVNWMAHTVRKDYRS
T1 sequence (P27986 whole entry partner): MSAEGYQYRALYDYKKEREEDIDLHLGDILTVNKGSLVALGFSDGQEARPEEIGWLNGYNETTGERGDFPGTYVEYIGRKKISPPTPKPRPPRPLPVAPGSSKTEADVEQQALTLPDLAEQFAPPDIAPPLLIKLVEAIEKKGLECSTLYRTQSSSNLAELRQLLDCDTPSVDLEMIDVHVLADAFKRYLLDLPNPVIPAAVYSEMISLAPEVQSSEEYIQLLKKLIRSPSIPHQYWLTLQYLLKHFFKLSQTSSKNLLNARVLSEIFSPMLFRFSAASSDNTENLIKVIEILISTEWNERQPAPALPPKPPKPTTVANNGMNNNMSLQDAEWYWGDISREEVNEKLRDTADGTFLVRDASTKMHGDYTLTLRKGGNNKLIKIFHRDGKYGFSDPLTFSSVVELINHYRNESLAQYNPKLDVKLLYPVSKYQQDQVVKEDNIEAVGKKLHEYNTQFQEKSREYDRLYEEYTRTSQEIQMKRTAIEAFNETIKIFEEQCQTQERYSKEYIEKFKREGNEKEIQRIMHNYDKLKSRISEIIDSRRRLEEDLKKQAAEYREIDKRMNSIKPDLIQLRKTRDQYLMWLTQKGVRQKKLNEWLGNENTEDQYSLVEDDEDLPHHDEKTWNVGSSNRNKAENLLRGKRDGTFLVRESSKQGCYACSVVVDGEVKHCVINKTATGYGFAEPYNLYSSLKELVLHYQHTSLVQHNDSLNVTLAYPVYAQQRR
T2 sequence (P48736 whole entry): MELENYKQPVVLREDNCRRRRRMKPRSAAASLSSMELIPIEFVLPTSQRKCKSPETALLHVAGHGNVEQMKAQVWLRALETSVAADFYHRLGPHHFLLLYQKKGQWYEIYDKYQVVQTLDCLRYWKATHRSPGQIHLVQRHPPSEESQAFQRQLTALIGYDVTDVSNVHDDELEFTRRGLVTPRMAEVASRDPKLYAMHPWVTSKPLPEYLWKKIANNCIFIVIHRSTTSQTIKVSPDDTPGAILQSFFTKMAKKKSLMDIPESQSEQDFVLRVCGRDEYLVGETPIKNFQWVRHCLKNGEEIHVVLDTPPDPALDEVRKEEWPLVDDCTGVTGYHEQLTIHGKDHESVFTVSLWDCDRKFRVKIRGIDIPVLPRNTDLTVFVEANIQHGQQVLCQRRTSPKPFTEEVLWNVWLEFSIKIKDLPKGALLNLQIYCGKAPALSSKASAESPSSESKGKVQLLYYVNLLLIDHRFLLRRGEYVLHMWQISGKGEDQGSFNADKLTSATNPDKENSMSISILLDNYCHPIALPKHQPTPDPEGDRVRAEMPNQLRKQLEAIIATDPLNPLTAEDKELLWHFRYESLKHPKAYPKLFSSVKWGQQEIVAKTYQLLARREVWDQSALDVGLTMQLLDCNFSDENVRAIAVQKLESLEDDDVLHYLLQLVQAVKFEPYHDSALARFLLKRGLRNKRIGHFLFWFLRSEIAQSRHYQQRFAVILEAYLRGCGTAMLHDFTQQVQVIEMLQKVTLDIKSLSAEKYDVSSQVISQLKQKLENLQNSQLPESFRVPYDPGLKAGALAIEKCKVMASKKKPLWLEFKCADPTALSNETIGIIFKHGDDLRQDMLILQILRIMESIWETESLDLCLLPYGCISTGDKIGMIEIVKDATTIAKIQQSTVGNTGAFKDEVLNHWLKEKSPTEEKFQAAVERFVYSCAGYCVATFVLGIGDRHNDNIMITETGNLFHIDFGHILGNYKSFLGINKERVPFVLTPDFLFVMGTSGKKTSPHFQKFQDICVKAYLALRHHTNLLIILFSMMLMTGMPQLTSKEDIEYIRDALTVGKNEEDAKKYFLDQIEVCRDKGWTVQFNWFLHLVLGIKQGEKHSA
Procedure for PI3Kβ (p110β/p85α): Activity of PI3Kβ was measured using time-resolved fluorescence resonance energy transfer (TR-FRET) assay utilizing homogenous time resolved fluorescence (HTRF) technology. PI3Kβ, a complex of N-terminal histidine-tagged recombinant full-length human p110β and untagged recombinant full length human p85α were coexpressed in a Baculovirus infected Sf21 cell expression system. (GenBank Accession No. for p110β, NM—006219; for p85α, XM—043865) The proteins are purified by one-step affinity chromatography using glutathione-agarose. A competition assay was performed to measure the amount of PIP3 generated from PIP2 in the presence of purified recombinant PI3 Kbeta (p110β/p85α). PI3Kβ was incubated with 10 μM PIP2 substrate in the reaction buffer (20 mM HEPES, pH 7.5, 10 mM NaCl, 4 mM MgCl2, 2 mM DTT, 10 μM ATP and 1% DMSO) for 30 minutes at 30° C. The reaction product was then mixed with a PIP3 detector protein, europium-labeled antibody, biotin-labeled PIP3 probe and allophycocyanin-labeled Streptavidin. A sensor complex is formed to generate a stable TR-FRET signal in the reaction mixture. This signal intensity decrease as biotin-labeled probe binding to the PIP3 detector is displaced by PIP3 produced by enzymatic activity and the amount of unbound biotin-labeled PIP3 probe in the mixture increases. TR-FRET signal was determined using microplate reader with background subtraction.

On to `CN(Cc1cc2nc(-c3ccc(N)cc3)nc(N3CCOCC3)c2s1)c1ncc(C(=O)NO)cn1` [Compound 150, 2-(((2-(4-aminophenyl)-4-morpholinothieno[3,2-d]pyrimidin-6-yl)methyl)(methyl)amino)-N-hydroxypyrimidine-5-carboxamide], for which the IC50 was under 100 nM on PI3Kβ (p110β/p85α); 100 to 1000 nM on PI3Kγ (p120γ); under 100 nM in the experiment with Sk-Mel-28 cells [1]; under 10 nM in the experiment with MDA-MB-453 cells; 10 to 100 nM with MDA-MB-468 cells; under 10 nM with Sk-Mel-28 cells [2]. Besides, the IC50 is under 10 nM in the experiment with SUP-B15 cells, under 0.01 µM with Raji cells and under 0.01 µM in the experiment with RPMI-8226 cells.
Take `CS(=O)(=O)N1CCN(Cc2cc3nc(-c4cccc5[nH]ncc45)nc(N4CCOCC4)c3s2)CC1` [GDC-0941, reference compound]: the IC50 with HCT116 cells was 1 to 10 µM; with SW403 cells it was over 10 µM; with SW620 cells, over 10 µM; with SWI-116 cells it was over 10 µM; in the experiment on T-84 cells it was 1 to 10 µM; in the experiment on H358 cells it was 1 to 10 µM. For the same molecule, the IC50 with H292 cells was 1 to 10 µM; with H2122 cells, 1 to 10 µM; in the experiment on H460 cells, over 10 µM; in the experiment on A549 cells, 1 to 10 µM; in the experiment on Calu6 cells, over 10 µM; in the experiment with MiaPaca1 cells, over 10 µM. The IC50 in the experiment on CaPan2 cells is over 10 µM; with PANC-1 cells it was 1 to 10 µM; in the experiment on MDA-MB-453 cells, 100 to 1000 nM; in the experiment on Sk-Mel-28 cells [2], 10 to 100 nM; with Raji cells, over 10 µM; with RPMI-8226 cells it was over 10 µM. For the same molecule, in the experiment with glioblastoma xenografts, the “tumor suppression in glioblastoma xenografts” value is recorded as “tumor suppression”.
